Measured values: US20030203963A1, “Antimicrobial agent” (priority 2001, published 2003)

What was measured:
[1] = tested on: Lb. sake; assay: Test in milk; assay type: cell-based, Lactobacillus sake; details: for Control of growth: 2000 ppm, TMGB010605
Procedure: 8.9 ml samples of UHT milk containing 0.5% glucose and the indicator bromocresol purple (0.01%) were prepared and sterilised by autoclaving. The pH before APP addition was pH 6.65. Appropriate stock solutions of APP batch number APP20010215 (at 138 mg/ml) were prepared and filter sterilised. 1 ml of each was added to the milk to prepare tests containing 0, 1000 and 2000 ppm APP. Tests were then inoculated with 100 μl of diluted overnight broth cultures or spore suspensions to give a final inoculum level of ca. 10^3 cfu/ml. These and uninoculated tests were incubated at 20 and 8° C. and examined daily for visible changes compared to uninoculated control.

[2] = tested on: Zygosaccharomyces bailii CRA229; assay: Test in apple juice; assay type: cell-based; details: for Growth controlled for: apple juice (pH 3.42) at 25° C., TAJ010530
Procedure: (§1) 8.9 ml apple juice samples (pH 3.42) were prepared and autoclaved. Batch number APP20010215 (at 138 mg/ml) was used to prepare filter-sterilised stock solutions for 1 ml addition to the juice to achieve 0, 1000, 2000 ppm APP. Tests were inoculated with 100 μl of an appropriately diluted overnight SLM broth of yeast culture or ascospore suspension of Byssochlamys spores prepared earlier. The tests were incubated at 25° C., and examined daily for signs of growth (e.g. turbidity, mycelium development).

[3] = tested on: B. nivea 163642; assay: Test in apple juice; assay type: cell-based; details: apple juice (pH 3.42) at 25° C., TAJ010530
Procedure: as §1

[4] = tested on: Hanseniaspora uvarum CBS5074; assay: Test in apple juice; assay type: cell-based; details: for Growth inhibition: apple juice (pH 3.42) at 25° C., TAJ010530
Procedure: as §1

[5] = tested on: Byssochlamys fulva 040021; assay: Test in apple juice; assay type: cell-based; details: apple juice (pH 3.42) at 25° C., TAJ010530
Procedure: as §1

[6] = tested on: Candida parapsilosis 458; assay: Test in apple juice; assay type: cell-based; details: apple juice (pH 3.42) at 25° C., TAJ010530
Procedure: as §1

[7] = tested on: Rhodotorula mucilaginosa var mucilaginosa CBS8161; assay: Test in apple juice; assay type: cell-based; details: for Growth inhibition: apple juice (pH 3.42) at 25° C., TAJ010530
Procedure: as §1

[8] = tested on: Br. thermosphacta; assay: Inoculated test in raw meat; assay type: cell-based, Brochothrix thermosphacta; details: Raw inoculated meat at 8° C. pH 5.3
Procedure: Fresh beef steak was purchased from the local butcher, and minced on clean machinery. The raw meat (ca. pH 6.2) was divided into 8×90 samples and inoculated-with 10^3 cfu/ml of test organisms. The meat was mixed thoroughly using a stomacher. 10 g of SDW or 2% APP (Batch number APP20010215) was added, and the meat was again thoroughly mixed. An initial viable count was taken, the meat was incubated at 8° C., and sampled on the following days using non-selective agar (MPCA) and selective agar: XLD for Salmonella; Oxford selective agar (Listeria monocytogenes); and STAA agar (Brochothrix thermosphacta). The pH of the raw meat was pH 5.3.

[9] = tests disclosed by Baute et al., Phytochemistry 33 (1993); cited from earlier work
[10] = tested on: Salmonella spp; assay: Lab media at optimum temperature (summary); assay type: cell-based
Procedure: (§2) For broth cultures and Bioscreen testing most bacteria were grown in Brain Heart Infusion (BHI, Oxoid, pH 7.4). Lactobacillus sake A10 was grown in de Man, Rogosa, Sharpe medium ([…], Oxoid). Yeasts were grown in Sabouraud Liquid medium (SLM, Oxoid). Most bacteria were cultured at 30° C. Lactic acid bacteria were grown on solid medium in enriched CO2 atmosphere. Clostridium species were grown in Reinforced Clostridial Medium (RCM) at 37° C. anaerobically. Brochothrix thermosphacta fungi and yeasts were grown at 25° C. Fungi were cultured on Malt Extract Agar (MEA, Oxoid).
(§3) An automated Microbiology Reader Bioscreen C was used to measure growth curves of the strains in the presence and absence of APP. The Bioscreen C measures the development of turbidity (i.e. growth) kinetically by vertical photometry in 200 wells of a honeycomb microtitre plate, simultaneously. The system consists of a Bioscreen C analyser, which is an incubator and measurement unit, integrated with a PC, software (BioLink v 5.30), printer and a ‘Honeycomb 2’ cuvette multiwell plate. Growth curve data can be analysed within the BioLink software or exported to programs such as Excel.
(§4) Broth culture media were dispensed in 270 μl volumes into the wells as directed. Serial dilutions of a filter-sterilised APP stock solution were then dispensed into the same wells, as appropriate. The wells were inoculated with 30 μl of an appropriately diluted overnight broth culture or spore suspension, to give a final inoculum level of […]. The tests were incubated in the Bioscreen C for either 24 h at 30° C., or 72 h at 25° C. (depending on the micro-organism under investigation) with readings taken every 20 minutes after the trays were shaken. After the incubation period was complete the data were exported to Excel for analysis.

[11] = tested on: Most yeasts; assay: Lab media at optimum temperature (summary); assay type: cell-based
Procedure: as §2, §3, §4

[12] = tested on: Ent. aerogenes 10102; assay: Bioscreen growth inhibition test; assay type: cell-based, Enterobacter aerogenes; details: BS010510, 24 h/30, APP20010213
Procedure: as §2, §3
Broth culture media were dispensed in 270 μl volumes into the wells as directed. […] (depending on the micro-organism under investigation) with readings taken every 20 minutes after the trays were shaken. […]

[13] = tested on: Salm Typhimurium S29; assay: Test in cooked minced beef slurry; assay type: cell-based, Salmonella Typhimurium
Procedure: 1 kg of minced beef, purchased from the local butcher, was mixed with 1 litre of BHI. 200 g portion of this meat slurry was autoclaved. When the meat had cooled, the pH was recorded (pH 6.24), and each pot was inoculated with 2.0 ml of 10^5 spores or cells and the meat re-mixed thoroughly. Each inoculated 200 g pot was distributed as 3×50 g portions. To each pot 1 ml of SDW, 5% or 10% APP (Batch No. APP20010215) was added, and the meat was again mixed thoroughly. An initial viable count was performed, the meat was incubated at 8° C. and sampled twice weekly. The pH of the cooked minced beef slurry was 6.24.

SMILES: O=C1CC(CO)OC=C1O (stereo not drawn) [APP, Ascopyrone P]
- Control of growth ([1]; milk at 8° C.): No control observed
- Control of growth ([1]; milk at 20° C.): No control observed
- No inhibition (effect on growth of target organism by 2000 ppm APP) ([1]; Milk at 8° C. pH 6.65): Lb. sake
- No inhibition (effect on growth of target organism by 2000 ppm APP) ([1]; Milk at 20° C. pH 6.65): Lb. sake
- Growth controlled for ([2]; 1000 ppm): 34 days
- Growth controlled for ([2]; 2000 ppm): 34 days
- Partial inhibition (effect on growth of target organism by 2000 ppm APP) ([2]; Apple juice at ambient pH 3.4): Z. bailii
- Growth inhibition ([3]; 1000 ppm): No growth inhibition
- Growth inhibition ([3]; 2000 ppm): No growth inhibition
- Growth inhibition ([4]; 1000 ppm): No growth inhibition
- Growth inhibition ([4]; 2000 ppm): No growth inhibition
- No inhibition (effect on growth of target organism by 2000 ppm APP) ([4]; Apple juice at ambient pH 3.4): H. uvarum
- Growth inhibition ([5]; 1000 ppm): No growth inhibition
- Growth inhibition ([5]; 2000 ppm): No growth inhibition
- Growth inhibition ([6]; 1000 ppm): No growth inhibition
- Growth inhibition ([6]; 2000 ppm): No growth inhibition
- Growth inhibition ([7]; 1000 ppm): No growth inhibition
- Growth inhibition ([7]; 2000 ppm): No growth inhibition
- No inhibition (effect on growth of target organism by 2000 ppm APP) ([7]; Apple juice at ambient pH 3.4): Rh. mucilaginosa
- No inhibition (effect on growth of target organism by 2000 ppm APP) [8]: Br. thermosphacta
- Function as an antibiotic [9]: did not function satisfactorily as an antibiotic
- Partial inhibition (effect on growth of target organism by 2000 ppm APP) [10]: Salmonella spp
- Effect on growth of target organism by 2000 ppm APP (remark in No inhibition column) [11]: (enhanced growth)
- No inhibition (effect on growth of target organism by 2000 ppm APP) [11]: Most yeasts
- APP level causing total inhibition [12]: 4000 ppm
- Total inhibition for ([13]; 2000 ppm, minced beef slurry at 8° C., pH 6.24, TCM010619): Total inhibition by 2000 ppm for >44 d
- Total inhibition (effect on growth of target organism by 2000 ppm APP) ([13]; Cooked minced beef slurry at 8° C. pH 6.24): S. Typhimurium
